# Experimental data taken from ChEMBL document CHEMBL1201862, “PubChem BioAssay data set” (2004).
# The source made the active and inactive calls. Unless noted, the rule behind the calls is not given here.
# How the values were obtained:
# [1] = reduced cellular PGC1a acetyl-lysine signal – cell-based, cherry-picked samples, dose response (AID 720514); assay type: functional;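 also: potency may reflect raised or lowered acetylation signal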
# [2] = biological target: T1, Short transient receptor potential channel 4 (Mus musculus, UniProt Q9QUQ5); test: block of DAMGO-driven TRPC4 calcium entry – cell-based, HEK293 TRPC4/mu-opioid, Fluo-4 calcium, dose response (AID 434942); assay type: functional;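 also: potency of inhibitors blocking the TRPC4 calcium response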
# T1 sequence (Q9QUQ5 whole entry): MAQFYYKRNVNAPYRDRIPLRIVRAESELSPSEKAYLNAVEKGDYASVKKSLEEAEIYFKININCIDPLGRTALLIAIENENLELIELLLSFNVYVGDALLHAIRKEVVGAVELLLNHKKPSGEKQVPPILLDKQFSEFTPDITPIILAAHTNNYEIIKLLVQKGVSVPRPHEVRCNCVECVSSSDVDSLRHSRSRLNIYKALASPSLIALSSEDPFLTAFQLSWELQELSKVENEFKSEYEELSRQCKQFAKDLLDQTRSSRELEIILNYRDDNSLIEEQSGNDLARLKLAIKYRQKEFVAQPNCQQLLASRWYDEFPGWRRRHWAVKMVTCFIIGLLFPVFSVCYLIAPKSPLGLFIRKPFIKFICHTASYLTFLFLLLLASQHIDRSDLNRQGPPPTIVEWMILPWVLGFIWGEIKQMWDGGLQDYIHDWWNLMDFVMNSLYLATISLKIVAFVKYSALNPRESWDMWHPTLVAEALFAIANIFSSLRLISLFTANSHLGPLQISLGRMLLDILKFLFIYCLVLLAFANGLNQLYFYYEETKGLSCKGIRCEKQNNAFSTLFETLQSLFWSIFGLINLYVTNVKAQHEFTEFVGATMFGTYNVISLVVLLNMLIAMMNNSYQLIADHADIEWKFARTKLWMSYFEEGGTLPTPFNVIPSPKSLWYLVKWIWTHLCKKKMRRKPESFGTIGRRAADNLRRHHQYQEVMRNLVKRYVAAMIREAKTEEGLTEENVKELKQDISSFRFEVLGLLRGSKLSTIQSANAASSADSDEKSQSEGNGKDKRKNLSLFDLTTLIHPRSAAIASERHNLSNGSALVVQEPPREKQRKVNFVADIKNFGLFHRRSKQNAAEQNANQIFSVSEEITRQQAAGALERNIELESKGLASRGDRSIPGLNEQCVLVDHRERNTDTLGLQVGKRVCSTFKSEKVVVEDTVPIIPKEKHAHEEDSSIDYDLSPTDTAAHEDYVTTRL
# [3] = biological target: Kappa-type opioid receptor (Homo sapiens, UniProt P41145); test: Late-stage fluorescence-based cell-based dose response assay for antagonists of kappa opioid receptor 1 (OPRK1).; assay type: functional
# Kappa-type opioid receptor, sequence (P41145 whole entry): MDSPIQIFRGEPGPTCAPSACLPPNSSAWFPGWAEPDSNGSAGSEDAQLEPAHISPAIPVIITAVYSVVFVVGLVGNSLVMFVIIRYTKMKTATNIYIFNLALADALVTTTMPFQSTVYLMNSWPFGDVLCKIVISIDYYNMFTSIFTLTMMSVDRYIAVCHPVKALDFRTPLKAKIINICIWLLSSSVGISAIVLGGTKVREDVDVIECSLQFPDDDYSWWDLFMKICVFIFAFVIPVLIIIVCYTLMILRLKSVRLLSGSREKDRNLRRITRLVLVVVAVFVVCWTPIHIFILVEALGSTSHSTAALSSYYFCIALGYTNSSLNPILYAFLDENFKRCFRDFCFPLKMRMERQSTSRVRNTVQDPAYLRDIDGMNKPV
# Mu-type opioid receptor = Mu-type opioid receptor (Homo sapiens, UniProt P35372); test: Late-stage results from the probe development effort to identify antagonists of OPRK1: luminescence-based cell-based dose response OPRM1 counterscreen, Set 2.; assay type: functional
# Mu-type opioid receptor, sequence (P35372 whole entry): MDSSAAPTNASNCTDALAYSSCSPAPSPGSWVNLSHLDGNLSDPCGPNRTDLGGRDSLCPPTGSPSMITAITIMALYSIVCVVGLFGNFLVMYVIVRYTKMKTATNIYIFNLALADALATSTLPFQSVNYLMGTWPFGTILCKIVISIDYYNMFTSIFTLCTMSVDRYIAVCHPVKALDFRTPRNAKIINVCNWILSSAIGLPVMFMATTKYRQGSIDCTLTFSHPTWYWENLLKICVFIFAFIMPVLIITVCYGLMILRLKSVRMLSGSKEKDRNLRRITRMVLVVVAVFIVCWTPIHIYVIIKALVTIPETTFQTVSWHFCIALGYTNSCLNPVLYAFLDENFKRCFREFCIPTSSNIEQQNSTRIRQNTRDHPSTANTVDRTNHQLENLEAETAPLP
# [4] = biological target: Sphingosine 1-phosphate receptor 1 (Homo sapiens, UniProt P21453); test: Late-stage counterscreen for antagonists of kappa opioid receptor 1 (OPRK1): fluorescence-based cell-based dose response assay to identify antagonists of Sphingosine 1-Phosphate Receptor 1 (S1P1).; assay type: functional
# Sphingosine 1-phosphate receptor 1, sequence (P21453 whole entry): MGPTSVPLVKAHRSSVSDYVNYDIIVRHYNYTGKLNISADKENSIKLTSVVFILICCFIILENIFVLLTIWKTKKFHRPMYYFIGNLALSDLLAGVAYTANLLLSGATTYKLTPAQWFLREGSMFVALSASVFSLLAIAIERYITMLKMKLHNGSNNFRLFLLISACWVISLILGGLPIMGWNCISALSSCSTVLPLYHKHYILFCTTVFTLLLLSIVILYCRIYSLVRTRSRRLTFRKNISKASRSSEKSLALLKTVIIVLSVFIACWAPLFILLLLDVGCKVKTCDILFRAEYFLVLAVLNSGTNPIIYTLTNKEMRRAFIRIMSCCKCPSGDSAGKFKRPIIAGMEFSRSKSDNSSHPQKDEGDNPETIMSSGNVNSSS
# [5] = biological target: Delta-type opioid receptor (Homo sapiens, UniProt P41143); test: Late-stage results from the probe development effort to identify antagonists of OPRK1: fluorescence-based cell-based dose response OPRD1 counterscreen, Set 2.; assay type: functional
# Delta-type opioid receptor, sequence (P41143 whole entry): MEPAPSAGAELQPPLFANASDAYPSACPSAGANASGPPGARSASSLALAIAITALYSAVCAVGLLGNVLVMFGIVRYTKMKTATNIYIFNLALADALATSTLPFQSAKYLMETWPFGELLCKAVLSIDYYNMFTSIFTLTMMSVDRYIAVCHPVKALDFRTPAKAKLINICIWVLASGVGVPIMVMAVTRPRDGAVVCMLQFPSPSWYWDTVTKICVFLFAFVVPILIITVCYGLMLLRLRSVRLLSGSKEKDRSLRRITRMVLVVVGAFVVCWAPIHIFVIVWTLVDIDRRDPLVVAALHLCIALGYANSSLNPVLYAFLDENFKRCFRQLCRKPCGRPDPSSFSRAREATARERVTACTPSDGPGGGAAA
# cells = conditions: HEK293;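 also: cells exposed to compound for 48 hours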
# HEK293 = test: viability loss in HEK293T cells – cell-based, ATP luminescence, cherry-pick samples, cytotoxicity control, dose response (AID 687005); assay type: functional; conditions: Homo sapiens;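 also: cells exposed to compound for 48 hours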
# [6] = HEK293 Cytotoxicity Assay Measured in Cell-Based System Using Plate Reader - 7071-01_Inhibitor_Dose_CherryPick_Activity_Set2.; assay type: functional
# HeLa = test: viability loss in HeLa cells – cell-based, ATP luminescence, cherry-pick samples, cytotoxicity control, dose response (AID 687004); assay type: functional; conditions: Homo sapiens
structure (smiles),measurement,setting,value
CCOC(=O)C1(Cc2cccc(F)c2)CCN(Cc2c(C)nn(CC)c2C)CC1,AC50,[1],28.8 µM (active)
same,EC50,[2],1.06 µM (active)
COc1cc([N+](=O)[O-])c(OC)cc1SCc1nnc(S)n1-c1ccc(C)cc1,IC50,[3],2.2 µM (active)
same,IC50,Mu-type opioid receptor,> 50 µM (inactive)
same,IC50,[4],> 50 µM (inactive)
same,IC50,[5],> 50 µM (inactive)
Cc1c(C(=O)NCc2ccc(Cl)c(Cl)c2)sc(=O)n1Cc1cccc(F)c1,AC50,cells,> 52 µM (inactive)
Cc1cccc(-c2ccc([C@@H]3[C@H]4CN(C(=O)c5ccc6c(c5)OCO6)CCCCN4[C@H]3CO)cc2)c1,AC50,HEK293,8.23 µM (active)
same,AC50,[6],8.23 µM (active)
same,AC50,HeLa,20.2 µM (active)
